Reference: PubChem BioAssay AID330 (DTP/NCI, 2004)
Values joined by “and” are separate entries in the source; they are usually repeats but may differ in a detail not shown here. Equal values may be shown once. Toxic doses and inconclusive results are not listed. The calls were made as follows: active = survival T/C of 150% or more; inactive = T/C below 125% in these data.

Tested on: P388 leukemia ip, CD2F1 mice, survival T/C
Experiment: NCI In Vivo Anticancer Drug Screen. Data for tumor model P388 Leukemia (intraperitoneal) in CD2F1 (CDF1) mice
Conditions: endpoint: median survival time, higher = longer survival
Procedure, shortened: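 Mice carrying the transplanted tumor received test compound or vehicle. Survival was recorded in each group, and the value is the treated-group measurement divided by that of the vehicle-treated control group.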

[1] = dose: 6.25 mg/kg/injection, schedule: Q01DX009 (ip), vehicle: saline with Tween-80
[2] = dose: 12.5 mg/kg/injection, schedule: Q01DX009 (ip), vehicle: saline with Tween-80
[3] = dose: 25.0 mg/kg/injection, schedule: Q01DX009 (ip), vehicle: saline with Tween-80
[4] = dose: 50.0 mg/kg/injection, schedule: Q01DX005 (ip), vehicle: Klucel (hydroxypropylcellulose) (HPC)
[5] = dose: 100.0 mg/kg/injection, schedule: Q01DX005 (ip), vehicle: Klucel (hydroxypropylcellulose) (HPC)
[6] = dose: 200.0 mg/kg/injection, schedule: Q01DX005 (ip), vehicle: Klucel (hydroxypropylcellulose) (HPC)
[7] = dose: 50.0 mg/kg/injection, schedule: Q01DX005 (ip), vehicle: saline with Tween-80
[8] = dose: 100.0 mg/kg/injection, schedule: Q01DX005 (ip), vehicle: saline with Tween-80
[9] = dose: 200.0 mg/kg/injection, schedule: Q01DX005 (ip), vehicle: saline with Tween-80
[10] = dose: 60.0 mg/kg/injection, schedule: Q01DX005 (ip), vehicle: saline with Tween-80
[11] = dose: 120.0 mg/kg/injection, schedule: Q01DX005 (ip), vehicle: saline with Tween-80
[12] = dose: 240.0 mg/kg/injection, schedule: Q01DX005 (ip), vehicle: saline with Tween-80

Measured: T/C

C=C1C(=O)O[C@H]2C=C(C)[C@H]3[C@@H](OC(C)=O)C[C@@](C)(O)[C@@H]3C[C@H]12
inactive: dose: 12.5 mg/kg/injection, schedule: Q01DX009 (ip), vehicle: suspension in saline 106 % of control | dose: 25.0 mg/kg/injection, schedule: Q01DX009 (ip), vehicle: suspension in saline 106 % of control | dose: 50.0 mg/kg/injection, schedule: Q01DX009 (ip), vehicle: suspension in saline 103 % of control | dose: 100.0 mg/kg/injection, schedule: Q01DX009 (ip), vehicle: suspension in saline 114 % of control

O=c1cc(CBr)c2ccccc2[nH]1
inactive: [1] 95 % of control | [2] 95 % of control | [3] 86 % of control

CN(C)c1nc(Cl)nc2c1nc(Cl)n2C1CCCCO1 (stereo unspecified)
inactive: [4] 93 % of control | [5] 90 % of control | [6] 102 % of control

NC1=C(O)C(=O)C(c2ccc(C3OC(N)=C(O)C3=O)cc2)O1 (stereo unspecified)
inactive: dose: 60.0 mg/kg/injection, schedule: Q01DX005 (ip), vehicle: Klucel (hydroxypropylcellulose) (HPC) 101 % of control | dose: 120.0 mg/kg/injection, schedule: Q01DX005 (ip), vehicle: Klucel (hydroxypropylcellulose) (HPC) 104 % of control | dose: 240.0 mg/kg/injection, schedule: Q01DX005 (ip), vehicle: Klucel (hydroxypropylcellulose) (HPC) 96 % of control

Cl[Si]1(Cl)CCCC1
inactive: dose: 50.0 mg/kg/injection, schedule: Q01DX009 (ip), vehicle: other 99 % of control | dose: 100.0 mg/kg/injection, schedule: Q01DX009 (ip), vehicle: other 100 % of control | dose: 200.0 mg/kg/injection, schedule: Q01DX009 (ip), vehicle: other 99 % of control

O=c1[nH]c(Sc2ccccn2)ccc1[N+](=O)[O-]
inactive: dose: 6.25 mg/kg/injection, schedule: Q01DX009 (ip), vehicle: Klucel (hydroxypropylcellulose) (HPC) 97 % of control | dose: 12.5 mg/kg/injection, schedule: Q01DX009 (ip), vehicle: Klucel (hydroxypropylcellulose) (HPC) 91 % of control | dose: 25.0 mg/kg/injection, schedule: Q01DX009 (ip), vehicle: Klucel (hydroxypropylcellulose) (HPC) 98 % of control and 92 % of control

CC(C)(C)OC(=O)NC(Cc1c[nH]c2ccccc12)C(=O)O (stereo unspecified)
inactive: [4] 102 % of control | [5] 101 % of control | [6] 101 % of control

CC(C)Cc1cc(-c2cc(CC(C)C)nc(N)n2)nc(N)n1
inactive: dose: 60.0 mg/kg/injection, schedule: Q01DX005 (ip), vehicle: saline 100 % of control | dose: 120.0 mg/kg/injection, schedule: Q01DX005 (ip), vehicle: saline 90 % of control

O=C1C(=O)N(c2ccccc2)C(=O)N1c1ccccc1
inactive: [1] 96 % of control | [2] 105 % of control | [3] 104 % of control and 89 % of control | dose: 100.0 mg/kg/injection, schedule: Q01DX009 (ip), vehicle: saline with Tween-80 101 % of control and 86 % of control

COC(=O)C1(c2ccccc2)OP2(N(C)C)(OCCN2C)OC1(C(=O)OC)c1ccccc1 (stereo unspecified)
inactive: [7] 104 % of control | [8] 98 % of control | [9] 91 % of control

CC(=O)Nc1ccc(C(=O)O)c(O)c1.CC(=O)Nc1ccc(C(=O)O)c(O)c1.[Cu]
inactive: dose: 6.25 mg/kg/injection, schedule: Q01DX001 (ip), vehicle: saline 98 % of control | dose: 12.5 mg/kg/injection, schedule: Q01DX001 (ip), vehicle: saline 97 % of control | dose: 25.0 mg/kg/injection, schedule: Q01DX001 (ip), vehicle: saline 94 % of control

C=C1C(=O)OC2/C=C(/C)CC/C=C(\C(=O)O)CC/C=C(\C)CCC12 (stereo unspecified)
inactive: dose: 100.0 mg/kg/injection, schedule: Q04DX003 (ip), vehicle: saline with Tween-80 113 % of control | dose: 200.0 mg/kg/injection, schedule: Q04DX003 (ip), vehicle: saline with Tween-80 110 % of control

COc1cc(OC)c(Cc2cc3c(cc2OC)OCO3)c(OC)c1
inactive: [10] 91 % of control | [11] 87 % of control | [12] 87 % of control

O=C(O)CN1CC(=O)N(c2ccccc2)C1=S
inactive: dose: 50.0 mg/kg/injection, schedule: Q01DX009 (ip), vehicle: saline 101 % of control | dose: 100.0 mg/kg/injection, schedule: Q01DX009 (ip), vehicle: saline 97 % of control | dose: 200.0 mg/kg/injection, schedule: Q01DX009 (ip), vehicle: saline 93 % of control

C=C(C)C(O)CCCO[Si](c1ccccc1)(c1ccccc1)C(C)(C)C (stereo unspecified)
inactive: [10] 94 % of control | [11] 95 % of control | [12] 97 % of control

COc1cc2ccc(/C=C/C(=O)c3ccc4c(c3)OCO4)cc2cc1OC
inactive: dose: 25.0 mg/kg/injection, schedule: Q01DX009 (ip), vehicle: water 103 % of control | dose: 50.0 mg/kg/injection, schedule: Q01DX009 (ip), vehicle: water 98 % of control | dose: 100.0 mg/kg/injection, schedule: Q01DX009 (ip), vehicle: water 97 % of control | dose: 200.0 mg/kg/injection, schedule: Q01DX009 (ip), vehicle: water 98 % of control | dose: 400.0 mg/kg/injection, schedule: Q01DX009 (ip), vehicle: water 91 % of control

CC(C)(C)n1nc(C2CC2)cc1NC(=O)Nc1ccc(Cl)cc1
inactive: [10] 93 % of control | [11] 94 % of control | [12] 91 % of control

CCC(=O)C(=O)CC1CC(c2ccco2)=Nc2ccccc2S1 (stereo unspecified)
inactive: [7] 111 % of control | [8] 113 % of control | [9] 102 % of control

Cc1cc(N=Nc2ccc(O)cc2C(=O)O)c([N+](=O)[O-])cc1C
inactive: dose: 50.0 mg/kg/injection, schedule: Q01DX009 (ip), vehicle: Klucel (hydroxypropylcellulose) (HPC) 101 % of control | dose: 100.0 mg/kg/injection, schedule: Q01DX009 (ip), vehicle: Klucel (hydroxypropylcellulose) (HPC) 111 % of control | dose: 200.0 mg/kg/injection, schedule: Q01DX009 (ip), vehicle: Klucel (hydroxypropylcellulose) (HPC) 104 % of control

CC(=O)N1CCCC2=C1CCCCC2
inactive: dose: 100.0 mg/kg/injection, schedule: Q04DX003 (ip), vehicle: saline 92 % of control | dose: 200.0 mg/kg/injection, schedule: Q04DX003 (ip), vehicle: saline 100 % of control | dose: 400.0 mg/kg/injection, schedule: Q04DX003 (ip), vehicle: saline 101 % of control

N#CCCN(CCC#N)c1ccc(/C=C2\C(=O)N(c3ccc(S(=O)(=O)O)cc3)N=C2C(=O)O)cc1
inactive: [10] 102 % of control | [11] 94 % of control | [12] 105 % of control

COc1cc([N+](=O)[O-])c(OC)c2c(=O)[nH]c(=O)[nH]c12
inactive: dose: 6.25 mg/kg/injection, schedule: Q01DX005 (ip), vehicle: Klucel (hydroxypropylcellulose) (HPC) 98 % of control | dose: 12.5 mg/kg/injection, schedule: Q01DX005 (ip), vehicle: Klucel (hydroxypropylcellulose) (HPC) 90 % of control

O=C(O)c1cc2ccc3cccc4ccc(c1)c2c34
inactive: [7] 96 % of control | [8] 102 % of control

COC(=O)C1CC(OC(C)=O)C(=O)[C@H]2C1(C)CC[C@H]1C(=O)O[C@H](c3ccoc3)CC12C (stereo partly specified)
inactive: dose: 19.0 mg/kg/injection, schedule: Q01DX005 (ip), vehicle: Klucel (hydroxypropylcellulose) (HPC) 94 % of control | dose: 38.0 mg/kg/injection, schedule: Q01DX005 (ip), vehicle: Klucel (hydroxypropylcellulose) (HPC) 87 % of control | dose: 76.0 mg/kg/injection, schedule: Q01DX005 (ip), vehicle: Klucel (hydroxypropylcellulose) (HPC) 90 % of control

C=CCN1C(=O)CCN(S(=O)(=O)c2ccc(-n3nc(C(=O)O)cc3C)cc2)C1=S
inactive: [7] 103 % of control | [8] 107 % of control | [9] 99 % of control

O=C(O)c1cc(-c2ccncc2)nc2ccccc12
inactive: [4] 99 % of control | [5] 96 % of control | [6] 97 % of control

CCCCCCCCCCCCCCCn1nnnc1N
inactive: [7] 86 % of control | [8] 91 % of control | [9] 96 % of control
